According to PMC8689007, “In Silico Prediction and Bioactivity Evaluation of Chemical Ingredients Against Influenza A Virus From Isatis tinctoria L” (Frontiers in Pharmacology, 2021):
≈ marks a conversion by molar mass, not a printed value. Where “and” joins values, the source holds several entries; their conditions need not be identical. Identical values can stand only once. Like-named read-outs stand apart in the source and are kept apart here.

Tests used:
[1] = test system: A/Minfang/151/2000 (H3N2); assay: microbe, parasite or virus in culture; conditions: Influenza A virus, H3N2, MDCK
[2] = test system: A/PR/8/34 (H1N1); assay: microbe, parasite or virus in culture; conditions: Influenza A virus, MDCK
[3] = test system: A/Minfang/151/2000 (H3N2)
[4] = test system: A/PR/8/34 (H1N1)
[5] = test system: Japanese encephalitis virus (JEV); conditions: mouse model; ref Chang et al., 2012; cited from earlier work
[6] = test system: H1N1; conditions: restraint-stressed mouse model; ref Chong et al., 2017; cited from earlier work
[7] = test system: Japanese encephalitis virus (JEV); conditions: in vitro; ref Chang et al., 2012; cited from earlier work
[8] = test system: HCoV-NL63; set-up: method as in Tsai et al., 2020; conditions: HCoV-NL63-infected cells; ref Tsai et al., 2020; read-out: IC50 (CPE and virus yield); cited from earlier work

Row | SMILES | IC50 [1] [µg/mL] | IC50 [2] [µg/mL] | IC50 [3] | IC50 [4] | other results
1 | COc1ccc(-c2cc(=O)c3c(O)cc(O)cc3o2)cc1 [Acacetin] | 7.62 ± 1.45 (≈ 26.8 µM) |  |  |  | 
2 | COc1c(O)cc2oc(-c3ccc(O)cc3)cc(=O)c2c1O [Dinatin] | > 100 |  |  |  | 
3 | COc1ccc(-c2cc(=O)c3c(O)c(OC)c(OC)cc3o2)cc1O [Eupatorin] |  | 59.5 ± 3.58 (≈ 173 µM) | 69.31 ± 1.97 µg/mL and 73.85 ± 1.34 µg/mL and 92.58 ± 0.33 µg/mL | 63.99 ± 3.38 µg/mL and 55.77 ± 3.86 µg/mL and 88.92 ± 7.34 µg/mL | 
4 | O=C1Nc2ccccc2/C1=C1/Nc2ccccc2C1=O [Indirubin] | 77.2 ± 6 (≈ 294 µM) | 58.5 ± 10.2 (≈ 223 µM) |  | 63.45 ± 5.27 µg/mL and 86.3 ± 5.68 µg/mL and 69.49 ± 1.36 µg/mL | protection against lethal JEV challenge [5]: good protective effects; H1N1 susceptibility and lung damage [6]: decrease the H1N1 susceptibility and alleviate lung damage; inhibitory activity on JEV replication [7]: concentration-dependent inhibitory activity
5 | COc1ccc(-c2cc(=O)c3c(O)cc(O[C@@H]4O[C@H](CO[C@@H]5O[C@@H](C)[C@H](O)[C@@H](O)[C@H]5O)[C@@H](O)[C@H](O)[C@H]4O)cc3o2)cc1 [Linarin] |  | 63.2 ± 3.32 (≈ 107 µM) | 81.85 ± 2.76 µg/mL and 86.35 ± 9.88 µg/mL and 77.71 ± 3.08 µg/mL | 54.27 ± 3.01 µg/mL and 72.21 ± 2.42 µg/mL and 56.26 ± 0.78 µg/mL | 
6 | O=C1c2ccccc2-n2c1nc1ccccc1c2=O [Tryptanthrin] |  |  |  |  | IC50 [8]: 1520 nM
